The values below come from patent publication US20250195521A1 (Revolution Medicines, Inc., priority 2020, published 2025).

Values joined by “and” are separate entries in the source; they are usually repeats but may differ in a detail not shown here. Equal values may be shown once. Read-outs that look alike come from different tables or passages of the source.

Assay [1] relates to Capan-1 cells (K-Ras G12V). In words: CellTiter-Glo cell viability, Capan-1. The assay is classed as cell-based, human. To be noted: Homo sapiens, CAPAN-1, 120 h, K-Ras G12V, 5-day treatment; read-out: Capan-1 Cell Viability IC50. In outline:
(§1)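 Cells seeded, compound dispensed straight into wells, 5-day exposure. Plates brought to room temperature ~30 min, CellTiter-Glo luminescence measured. Normalized to DMSO (%), 4-parameter logistic fit.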
(Cellular ATP, detected with luciferase, serves as a proxy for viable cell number.)

Assay [2] addresses KRAS G12D (Homo sapiens (Human), UniProt P01116+P62937, G12D). In words: Ras-Raf disruption/FRET/MOA assay (BRAF RBD, Cyclophilin A). Conditions: read-out: KRAS G12D FRET IC50. The assay is classed as biochemical. The method, boiled down: (§2)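 First, 25 μM Cyclophilin A, 12.5 nM His6-Ras-GMPPNP and 50 nM GST-BRAF RBD are mixed with diluted compound at pH 7.3. Next, 3 h at 25° C. Then 10 nM anti-His Eu-W1024 plus 50 nM anti-GST allophycocyanin for 1.5 h before TR-FRET reading.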

In assay [3] the target is KRAS G12S (Homo sapiens (Human), UniProt P01116+P62937, G12S). The description is as above. The class given is biochemical. Conditions: read-out: KRAS G12S FRET IC50. In outline:
as §2

The target of assay [4] is KRAS G12V (Homo sapiens (Human), UniProt P01116+P62937, G12V). Described as above. To be noted: read-out: KRAS G12V FRET IC50. The assay is classed as biochemical. In outline:
as §2

For assay [5], the target named is KRAS G13C (Homo sapiens (Human), UniProt P01116+P62937, G13C). Described as above. The class given is biochemical. Conditions: read-out: KRAS G13C FRET IC50. The method, boiled down:
as §2

For assay [6], the target named is KRAS G13D (Homo sapiens (Human), UniProt P01116+P62937, G13D). Described as above. To be noted: read-out: KRAS G13D FRET data IC50. The class given is biochemical. The method, boiled down: as §2
KRAS G13D, sequence (P01116 other isoform, or with tags, fused parts or gaps G13D): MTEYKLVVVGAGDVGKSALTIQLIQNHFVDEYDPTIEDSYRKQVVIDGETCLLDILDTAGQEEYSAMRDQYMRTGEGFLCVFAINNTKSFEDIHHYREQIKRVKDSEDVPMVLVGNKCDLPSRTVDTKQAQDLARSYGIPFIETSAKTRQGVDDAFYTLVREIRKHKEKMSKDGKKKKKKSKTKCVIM
KRAS G13D, sequence (P62937 whole entry): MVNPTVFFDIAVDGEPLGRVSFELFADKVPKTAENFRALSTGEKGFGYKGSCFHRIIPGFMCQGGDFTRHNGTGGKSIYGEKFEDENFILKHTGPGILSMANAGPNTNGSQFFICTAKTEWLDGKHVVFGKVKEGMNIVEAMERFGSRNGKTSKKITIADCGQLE
For assay [7], the target named is KRAS WT (Homo sapiens (Human), UniProt P01116+P62937). The description is as above. The class given is biochemical. Conditions: read-out: KRAS WT FRET data IC50. The method, boiled down:
as §2

The target in assay [8] is NRAS G12C (Homo sapiens (Human), UniProt P01111+P62937, G12C). Described as above. The class given is biochemical. Conditions: read-out: NRAS G12C FRET data IC50. The method, boiled down:
(§3)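 25 μM tagless Cyclophilin A, 12.5 nM His6-Ras-GMPPNP and 50 nM GST-BRAF RBD in HEPES pH 7.3 buffer with 5 mM MgCl2, with compound (10-point 3-fold series from 30 μM final) for 3 h at 25 °C. Anti-His Eu and anti-GST APC then added for 1.5 h. IC50 from TR-FRET ratio decrease versus DMSO.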

Assay [9] deals with NRAS Q61K (Homo sapiens (Human), UniProt P01111+P62937, Q61K). The assay is described as above. The class given is biochemical. The method, boiled down:
as §3

The target of assay [10] is NRAS WT (Homo sapiens (Human), UniProt P01111+P62937). Described as above. The class given is biochemical. In outline: as §3
NRAS WT, sequence (P01111 whole entry): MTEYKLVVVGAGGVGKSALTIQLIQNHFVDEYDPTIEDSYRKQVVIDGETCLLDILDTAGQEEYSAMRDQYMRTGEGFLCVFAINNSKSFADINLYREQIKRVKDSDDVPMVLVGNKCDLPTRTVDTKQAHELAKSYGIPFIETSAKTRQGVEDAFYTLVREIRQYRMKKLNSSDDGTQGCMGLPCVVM
NRAS WT, sequence (P62937 whole entry): as the sequence (P62937 whole entry) above
Assay [11] has as its system AsPC-1 (K-Ras G12D). Nature of the assay: Potency assay: pERK. The assay is classed as cell-based, human. To be noted: Homo sapiens. How it is done:
The purpose of this assay is to measure the ability of test compounds to inhibit K-Ras in cells. […] This procedure measures a decrease in cellular pERK in response to test compounds. The procedure described below in NCI-H358 cells is applicable to K-Ras G12C.
NCI-H358 cells were grown and maintained using media and procedures recommended by the ATCC. On the day prior to compound addition, cells were plated in 384-well cell culture plates (40 μl/well) and grown overnight in a 37° C., 5% CO2 incubator. Test compounds were prepared in 10, 3-fold dilutions in DMSO, with a high concentration of 10 mM. On the day of assay, 40 nL of test compound was added to each well of cell culture plate using an Echo550 liquid handler (LabCyte®). Concentrations of test compound were tested in duplicate. After compound addition, cells were incubated 4 hours at 37° C., 5% CO2. Following incubation, culture medium was removed and cells were washed once with phosphate buffered saline.
In some experiments, cellular pERK level was determined using the AlphaLISA SureFire Ultra p-ERK1/2 Assay Kit (PerkinElmer). Cells were lysed in 25 μL lysis buffer, with shaking at 600 RPM at room temperature. Lysate (10 μL) was transferred to a 384-well Opti-plate (PerkinElmer) and 5 μL acceptor mix was added. After a 2-hour incubation in the dark, 5 μL donor mix was added, plate was sealed, and incubated 2 hours at room temperature. Signal was read on an Envision plate reader (PerkinElmer) using standard AlphaLISA settings. Analysis of raw data was carried out in Excel (Microsoft) and Prism (GraphPad). Signal was plotted vs. the decadal logarithm of compound concentration, and IC50 was determined by fitting a 4-parameter sigmoidal concentration response model.
In other experiments, cellular pERK was determined by In-Cell Western. Following compound treatment, cells were washed twice with 200 μL tris buffered saline (TBS) and fixed for 15 minutes with 150 μL 4% paraformaldehyde in TBS. Fixed cells were washed 4 times for 5 minutes with TBS containing 0.1% Triton X-100 (TBST) and then blocked with 100 μL Odyssey blocking buffer (LI-COR) for 60 minutes at room temperature. Primary antibody (PERK, CST-4370, Cell Signaling Technology) was diluted 1:200 in blocking buffer, and 50 μL was added to each well and incubated overnight at 4° C. Cells were washed 4 times for 5 minutes with TBST. Secondary antibody (IR-800CW rabbit, LI-COR, diluted 1:800) and DNA stain DRAQ5 (LI-COR, diluted 1:2000) were added and incubated 1-2 hours at room temperature. Cells were washed 4 times for 5 minutes with TBST. Plates were scanned on a Li—COR Odyssey CLx Imager. Analysis of raw data was carried out in Excel (Microsoft) and Prism (GraphPad). Signal was plotted vs. the decadal logarithm of compound concentration, and IC50 was determined by fitting a 4-parameter sigmoidal concentration response model.

The subject of assay [12] is NCI-H358 cells (K-Ras G12C). Nature of the assay: CellTiter-Glo cell viability, NCI-H358. The class given is cell-based, human. To be noted: Homo sapiens, NCI-H358, 120 h, K-Ras G12C, 5-day treatment; read-out: H358 Cell Viability IC50. In outline: as §1
Assay [13] deals with KRAS G12C (Homo sapiens (Human), UniProt P01116+P62937, G12C). Nature of the assay: Ras-Raf disruption/FRET/MOA assay (BRAF RBD, Cyclophilin A). The class given is biochemical. To be noted: read-out: KRAS G12C FRET IC50. The method, boiled down:
as §2

For assay [14], the system named is K-Ras G12C (NCI-H358 cells). Nature of the assay: Potency assay: pERK in NCI-H358 cells. The assay is classed as cell-based, human. Conditions: Homo sapiens; NCI-H358 cells, 4 hours; read-out: pERK EC50 (H358 KRAS G12C). In outline:
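Cells plated the day before were exposed for 4 h at 37° C, 5% CO2 to a 10-point, 3-fold DMSO dilution series (10 mM top stock), in duplicate. Phospho-ERK was read by AlphaLISA SureFire Ultra or by In-Cell Western with DRAQ5 DNA stain, and IC50 came from a 4-parameter sigmoidal fit.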

Assay [15] deals with NCI-H358 (K-Ras G12C). Nature of the assay: CellTiter-Glo cell viability assay, NCI-H358. The assay is classed as cell-based, human. To be noted: Homo sapiens, NCI-H358, 120 h, 5-day treatment; read-out: H358 Cell Viability assay data (K-Ras G12C, IC50). In outline: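 Cells seeded, compound added directly to plates; day 5: plates to RT ~30 min, CellTiter-Glo luminescence; (sample/avg DMSO)*100; 4-parameter fit.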

The target in assay [16] is K-Ras G12C(GMP-PNP) binding to BRAF RBD (Homo sapiens (Human), UniProt P01116+P62937, G12C). Nature of the assay: Disruption of BRAF RBD interaction with K-Ras (FRET / MOA assay), K-Ras G12C. The assay is classed as biochemical. To be noted: read-out: KRAS G12C FRET IC50. In outline: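 Incubation of compound (up to 30 μM final, 3-fold steps) with GMP-PNP-type loaded Ras isoform, cyclophilin A and BRAF RBD ran 3 h at 25° C, followed by 1.5 h with detection antibodies. Disruption appears as a reduced TR-FRET ratio compared with DMSO controls, expressed as IC50.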
K-Ras G12C(GMP-PNP) binding to BRAF RBD, sequence (P01116 other isoform, or with tags, fused parts or gaps G12C): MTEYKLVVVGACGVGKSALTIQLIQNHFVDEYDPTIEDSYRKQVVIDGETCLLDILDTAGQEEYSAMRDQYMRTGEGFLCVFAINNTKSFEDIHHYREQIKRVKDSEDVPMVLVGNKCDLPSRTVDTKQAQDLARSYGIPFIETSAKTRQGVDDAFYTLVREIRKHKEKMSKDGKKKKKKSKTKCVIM
K-Ras G12C(GMP-PNP) binding to BRAF RBD, sequence (P62937 whole entry, canonical isoform): as the sequence (P62937 whole entry) above

Setting [17] is: ASPC1, AsPC-1 KRAS G12D, read-out: pERK EC50.

KRAS G12D, sequence (P01116 other isoform, or with tags, fused parts or gaps G12D): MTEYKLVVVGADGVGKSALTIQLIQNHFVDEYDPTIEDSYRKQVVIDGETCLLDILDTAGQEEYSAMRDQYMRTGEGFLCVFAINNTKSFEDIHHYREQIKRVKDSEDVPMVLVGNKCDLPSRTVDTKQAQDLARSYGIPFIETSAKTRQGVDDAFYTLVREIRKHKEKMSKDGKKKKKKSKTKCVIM
KRAS G12D, sequence (P62937 whole entry): as the sequence (P62937 whole entry) above
KRAS WT, sequence (P01116 other isoform, or with tags, fused parts or gaps): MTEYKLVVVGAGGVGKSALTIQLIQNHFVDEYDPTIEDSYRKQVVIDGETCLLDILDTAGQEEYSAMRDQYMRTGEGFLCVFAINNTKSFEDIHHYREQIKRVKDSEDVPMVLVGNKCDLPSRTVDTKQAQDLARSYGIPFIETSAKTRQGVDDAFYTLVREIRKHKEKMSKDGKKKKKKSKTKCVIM
KRAS WT, sequence (P62937 whole entry): as the sequence (P62937 whole entry) above
NRAS Q61K, sequence (P01111 whole entry Q61K): as the sequence (P01111 whole entry) above, with Q61K counted along it
NRAS Q61K, sequence (P62937 whole entry): as the sequence (P62937 whole entry) above
KRAS G12V, sequence (P01116 other isoform, or with tags, fused parts or gaps G12V): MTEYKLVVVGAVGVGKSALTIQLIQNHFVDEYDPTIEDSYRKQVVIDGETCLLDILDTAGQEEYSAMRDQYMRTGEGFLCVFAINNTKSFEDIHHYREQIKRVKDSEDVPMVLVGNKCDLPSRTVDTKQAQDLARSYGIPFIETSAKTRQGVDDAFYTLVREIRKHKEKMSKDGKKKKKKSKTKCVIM
KRAS G12V, sequence (P62937 whole entry): as the sequence (P62937 whole entry) above
NRAS G12C, sequence (P01111 whole entry G12C): as the sequence (P01111 whole entry) above, with G12C counted along it
NRAS G12C, sequence (P62937 whole entry): as the sequence (P62937 whole entry) above
KRAS G13C, sequence (P01116 other isoform, or with tags, fused parts or gaps G13C): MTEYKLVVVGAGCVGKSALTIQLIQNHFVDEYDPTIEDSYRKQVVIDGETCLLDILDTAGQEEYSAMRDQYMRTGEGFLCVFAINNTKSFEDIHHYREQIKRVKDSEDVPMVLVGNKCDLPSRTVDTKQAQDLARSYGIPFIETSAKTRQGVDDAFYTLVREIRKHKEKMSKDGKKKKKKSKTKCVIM
KRAS G13C, sequence (P62937 whole entry): as the sequence (P62937 whole entry) above
KRAS G12C, sequence (P01116-2 other isoform, or with tags, fused parts or gaps G12C): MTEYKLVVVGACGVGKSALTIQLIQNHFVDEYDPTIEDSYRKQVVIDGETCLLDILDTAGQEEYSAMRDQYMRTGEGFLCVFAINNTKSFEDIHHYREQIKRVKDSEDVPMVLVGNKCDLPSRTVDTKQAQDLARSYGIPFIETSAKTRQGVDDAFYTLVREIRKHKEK
KRAS G12C, sequence (P62937 whole entry): as the sequence (P62937 whole entry) above
KRAS G12S, sequence (P01116 other isoform, or with tags, fused parts or gaps G12S): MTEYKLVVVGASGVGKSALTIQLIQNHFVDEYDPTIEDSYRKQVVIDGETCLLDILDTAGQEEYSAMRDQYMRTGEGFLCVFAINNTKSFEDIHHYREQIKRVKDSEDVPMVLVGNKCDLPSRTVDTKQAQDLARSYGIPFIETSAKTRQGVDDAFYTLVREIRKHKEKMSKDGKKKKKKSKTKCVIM
KRAS G12S, sequence (P62937 whole entry): as the sequence (P62937 whole entry) above

For `CCn1c(-c2cccnc2[C@H](C)OC)c2c3cc(ccc31)-c1csc(n1)C[C@H](NC(=O)[C@H](C(C)C)N1CCC3(CN(S(C)(=O)=O)C3)C1=O)C(=O)N1CCC[C@H](N1)C(=O)OCC(C)(C)C2` [Compound A234], the IC50 (as a rule, the concentration needed to halve the response being measured) in assay [1] is above 10 µM; in assay [2], above 10 µM; in [3] it was above 10 µM; in assay [4], above 10 µM; in assay [5] it was 1 to 10 µM; in [6] it was above 10 µM. Also, the IC50 in assay [7] is 1 to 10 µM; in assay [8], above 10 µM; in [9], 1 to 10 µM; in assay [10], 1 to 10 µM.

In the case of `CCn1c(-c2cccnc2[C@H](C)OC)c2c3cc(ccc31)-c1cc(O)cc(c1)C[C@H](NC(=O)[C@H](C1CCCC1)N1CC[C@@]3(CCN(C(=O)[C@@H]4N[C@@H]4C4CC4)C3)C1=O)C(=O)N1CCC[C@H](N1)C(=O)OCC(C)(C)C2` [Example 215], the EC50 (usually the concentration needed to bring the measured effect to its halfway point) in [11] (setting [17]) is below 5 µM.

As for `CO[C@@H](C)c1ncccc1-c1c2c3cc(ccc3n1C)-c1cc(O)cc(c1)C[C@H](NC(=O)[C@H](C(C)C)N(C)C(C)=O)C(=O)N1CCC[C@H](N1)C(=O)OCC(C)(C)C2` [Compound A104], the IC50 is 1 to 10 µM in [12]; above 10 µM in assay [1]; 1 to 10 µM and > 10 µM in [13]; above 10 µM in assay [2]; above 10 µM in [3]; above 10 µM in assay [4]. For the same molecule, the IC50 in [5] is 1 to 10 µM; in assay [6] it was above 10 µM; in [7] it was above 10 µM; in assay [8], above 10 µM; in assay [9], 1 to 10 µM; in assay [10], 1 to 10 µM. Moreover, the EC50 in assay [14] is below 5 µM.

With `CCn1c(-c2cccnc2[C@H](C)OC)c2c3cc(ccc31)-c1csc(n1)C[C@H](NC(=O)[C@H](C1CCCC1)N1CC[C@]3(CCN(C(=O)[C@@H]4N[C@@H]4C4CC4)C3)C1=O)C(=O)N1CCC[C@H](N1)C(=O)OCC(C)(C)C2` [Example 234], the EC50 in assay [11] (setting [17]) was below 5 µM.

Take `CCn1c(-c2cccnc2[C@H](C)OC)c2c3cc(ccc31)-c1cc(O)cc(c1)C[C@H](NC(=O)[C@H](C(C)C)N(C)C(=O)c1ccc([C@@H]3CN3)cc1)C(=O)N1CCC[C@H](N1)C(=O)OCC(C)(C)C2` [Example 131]: the EC50 in assay [11] (setting [17]) was below 5 µM.

As to `CCn1c(-c2cccnc2[C@H](C)OC)c2c3cc(ccc31)-c1cc(O)cc(c1)C[C@H](NC(=O)[C@H](C(C)C)N(C)C(=O)N1CCN(C(=O)[C@@H]3CN3)CC1)C(=O)N1CCC[C@H](N1)C(=O)OCC(C)(C)C2` (atropisomer, axis not shown) [Example 197], the EC50 in [11] (setting [17]) was below 5 µM.

Take `CCn1c(-c2cccnc2[C@H](C)OC)c2c3cc(ccc31)-c1cc(cc(C(F)F)c1)C[C@H](NC(=O)[C@H](C1CCCC1)N1CC[C@]3(CCN(C(=O)[C@@H]4N[C@@H]4C4CC4)C3)C1=O)C(=O)N1CCC[C@H](N1)C(=O)OCC(C)(C)C2` [Example 318]: the EC50 in assay [11] (setting [17]) is below 5 µM.

For the molecule `CCn1c(-c2cccnc2[C@H](C)OC)c2c3cc(ccc31)-c1cc(O)cc(c1)C[C@H](NC(=O)[C@H](C(C)C)N(C)C(=O)CN(C)C(=O)[C@@H]1CN1CCCN1CCCC1=O)C(=O)N1CCC[C@H](N1)C(=O)OCC(C)(C)C2` (stereo partly shown) [Example 269], the EC50 in assay [11] (ASPC1, read-out: pERK EC50) was below 5 µM.

On to `CCn1c(-c2cccnc2[C@H](C)OC)c2c3cc(ccc31)-c1cc(O)cc(c1)C[C@H](NC(=O)[C@H](C(C)C)N(C)C(=O)CN(C)C(=O)[C@H]1CN1)C(=O)N1CCC[C@H](N1)C(=O)OCC(C)(C)C2` [Example 42A], for which, in assay [11] (ASPC1, read-out: pERK EC50), the EC50 was below 5 µM.

Take `CCn1c(-c2cccnc2[C@H](C)OC)c2c3cc(ccc31)-c1cc(O)cc(c1)C[C@H](NC(=O)[C@H](C(C)C)N(C)C(=O)C1(C(=O)O)CC1)C(=O)N1CCC[C@H](N1)C(=O)OCC(C)(C)C2` [Compound A150]: the IC50 is above 10 µM in [1]; 1 to 10 µM in [13]; above 10 µM in assay [2]; above 10 µM in assay [3]; above 10 µM in [4]; 1 to 10 µM in assay [5]. Moreover, the IC50 was above 10 µM in assay [6]; 1 to 10 µM in assay [7]; 1 to 10 µM in assay [8]; 1 to 10 µM in [9]; 1 to 10 µM in [10]; below 0.01 µM in assay [15]. The IC50 in assay [16] lay within 0.01 to 0.1 µM.
